In patent US9669003B2, “Use of flavone and flavanone derivatives in preparation of sedative and hypnotic drugs” (priority 2012, dated 2017):
Marks after values point to notes of the source that are not given here.

Columns and labels:
Assay type in all cases: in vivo
Kunming mice [1] = assay: Influence on hypnosis effect with pentobarbital sodium doses below the threshold (25 mg/kg i.p.); conditions: pentobarbital sodium 25 mg/kg i.p. 60 min later, sleep observed in 30 min, n = 10
Outline: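 Percentage of mice sleeping within 30 min after subthreshold pentobarbital sodium (25 mg/kg i.p.), defined by loss of righting reflex over 1 min, analysed by χ2. Compound in 0.5% CMC-Na given intragastrically at 25/50/100 mg/kg 60 min before; groups of 10 Kunming mice, both sexes.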

Kunming mice [2] = assay: Influence on hypnosis effect with pentobarbital sodium doses at the threshold (50 mg/kg i.p.); conditions: pentobarbital sodium 50 mg/kg i.p. 60 min later, x ± s, n = 10
Outline: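 Pentobarbital sodium (0.3%, 50 mg/kg i.p.) injected 60 min after a single intragastric dose (25, 50, 100 mg/kg, 0.5% CMC-Na vehicle) in Kunming mice, 10 per group, sexes balanced. Onset and length of sleep (righting reflex lost over 1 min) analysed by ANOVA; sleeping incidence by χ2 test.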

Kunming mice [3] = assay: Influence on autonomic activity of normal mice (ZIL-2 mice autonomic activity meter, counts within 10 min); conditions: intragastric, x ± s, n = 10; for Times of activities in 1 h after drug administration/10 min: 1 h after administration; for Times of activities in 2 h after drug administration/10 min: 2 h after administration; for Times of activities in 24 h after drug administration/10 min: 24 h after administration
Outline: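 Activity counts during a 10-min window were taken at 1, 2 and 24 h after dosing in groups of 10 mixed-sex Kunming mice. Compounds were given in 0.5% CMC-Na at 25, 50 or 100 mg/kg. Statistics used Levene's homogeneity test, ANOVA and Dunnett's multiple comparisons.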

[4] = test drug 25 mg/kg intragastric single dose
[5] = test drug 50 mg/kg intragastric single dose
[6] = test drug 100 mg/kg intragastric single dose
[7] = 25 mg/kg intragastric single dose
[8] = 50 mg/kg intragastric single dose
[9] = 100 mg/kg intragastric single dose

SMILES | Number of sleeping animals (Kunming mice [1]; [4]) | rate of sleeping (%) (Kunming mice [1]; [4]) | Number of sleeping animals (Kunming mice [1]; [5]) | rate of sleeping (%) (Kunming mice [1]; [5]) | Number of sleeping animals (Kunming mice [1]; [6]) | rate of sleeping (%) (Kunming mice [1]; [6]) | duration of sleep (Kunming mice [2]; [7]) [min] | time to sleep (Kunming mice [2]; [7]) [min] | duration of sleep (Kunming mice [2]; [8]) [min] | time to sleep (Kunming mice [2]; [8]) [min] | duration of sleep (Kunming mice [2]; [9]) [min] | time to sleep (Kunming mice [2]; [9]) [min] | Times of activities in 1 h after drug administration/10 min (Kunming mice [3]; 25 mg/kg) | Times of activities in 2 h after drug administration/10 min (Kunming mice [3]; 25 mg/kg) | Times of activities in 24 h after drug administration/10 min (Kunming mice [3]; 25 mg/kg) | Times of activities in 1 h after drug administration/10 min (Kunming mice [3]; 50 mg/kg) | Times of activities in 2 h after drug administration/10 min (Kunming mice [3]; 50 mg/kg) | Times of activities in 24 h after drug administration/10 min (Kunming mice [3]; 50 mg/kg) | Times of activities in 1 h after drug administration/10 min (Kunming mice [3]; 100 mg/kg) | Times of activities in 2 h after drug administration/10 min (Kunming mice [3]; 100 mg/kg) | also measured
COc1cc(OC)c2c(=O)cc(-c3cc(OC)c(OC)c(OC)c3)oc2c1 [Example 1, 5,7,3′,4′,5′-penta methoxyl-flavone] | 5 | 50** % | 7 | 70** % | 10 | 100*** % | 65.42 ± 27.30 | 3.84 ± 1.65 | 78.60 ± 14.67 | 3.54 ± 1.44 | 98.33 ± 21.63 | 2.75 ± 1.62 | 215.3 ± 40.1 /10 min | 211.2 ± 36.3 /10 min | 274.4 ± 81.2 /10 min | 137.1 ± 52.3 /10 min | 168.5 ± 57.9 /10 min | 275.2 ± 79.3 /10 min | 98.2 ± 41.9 /10 min | 96.2 ± 55.7 /10 min | Times of activities in 24 h after drug administration/10 min (Kunming mice [3]; 100 mg/kg): 301.2 ± 80.7 /10 min
COc1cc(OC)cc(C2CC(=O)c3c(OC)cc(OC)cc3O2)c1 (stereo not drawn) [Example 49] | 4 | 40* % | 6 | 60** % | 7 | 70** % | 37.90 ± 13.18 | 4.59 ± 1.55 | 40.75 ± 23.05 | 3.69 ± 1.32 | 57.65 ± 17.87 | 3.38 ± 1.29 | 305.2 ± 78.7 /10 min | 299.8 ± 94.1 /10 min | 281.4 ± 94.3 /10 min | 267.9 ± 21.5 /10 min | 246.6 ± 13.9 /10 min | 274.2 ± 34.8 /10 min | 179.9 ± 35.9 /10 min | 170.5 ± 34.1 /10 min | Times of activities in 24 h after drug administration/10 min (Kunming mice [3]; 100 mg/kg): 286.1 ± 12.7 /10 min
CC=Cc1cc(C(=O)O)c2c(=O)cc(-c3cc(C#N)c(F)c(C(=O)O)c3)oc2c1 [Example 22] | 6 | 60** % | 7 | 70** % | 9 | 90*** % | 30.12 ± 20.60 | 4.79 ± 2.43 | 37.78 ± 14.02 | 4.68 ± 1.59 | 52.57 ± 20.74 | 3.88 ± 1.18 | 320.3 ± 54.3 /10 min | 291.3 ± 42.0 /10 min | 301.3 ± 76.6 /10 min | 299.4 ± 42.7 /10 min | 255.3 ± 41.3 /10 min | 302.6 ± 91.8 /10 min | 281.5 ± 48.7 /10 min | 225.6 ± 45.3 /10 min | Times of activities in 24 h after drug administration/10 min (Kunming mice [3]; 100 mg/kg): 315.4 ± 78.2 /10 min
